ChEMBL document CHEMBL1201861, “Genomics of Drug Sensitity in Cancer screening data, Wellcome Trust Sanger Institute”

What was measured:
Assay in all cases: cells
ABC-1 = assay type: functional, cell-based, Homo sapiens; details: Homo sapiens, ABC-1;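 further: growth inhibition of human ABC-1 cells, read out by a cell viability assay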
Description: SANGER: Inhibition of human ABC-1 cell growth in a cell viability assay.

IST-MES1 = assay type: functional, cell-based, Homo sapiens; details: Homo sapiens, IST-MES1;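 further: growth inhibition of IST-MES1 cells, measured with a cell viability assay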
Description: SANGER: Inhibition of human IST-MES1 cell growth in a cell viability assay.

COLO-668 = assay type: functional, cell-based, Homo sapiens; details: Homo sapiens, COLO-668
Description: SANGER: Inhibition of human COLO-668 cell growth in a cell viability assay.

GMS-10 = assay type: functional, cell-based, Homo sapiens; details: Homo sapiens, GMS-10;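 further: growth inhibition of GMS-10 cells, read out as cell viability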
Description: SANGER: Inhibition of human GMS-10 cell growth in a cell viability assay.

CAPAN-1 = assay type: functional, cell-based, Homo sapiens; details: Homo sapiens, CAPAN-1;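 further: growth suppression of CAPAN-1 cells, read out by a cell viability assay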
Description: SANGER: Inhibition of human CAPAN-1 cell growth in a cell viability assay.

EFO-27 = assay type: functional, cell-based, Homo sapiens; details: Homo sapiens, EFO-27;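 further: growth inhibition of EFO-27 cells, read out with a cell viability assay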
Description: SANGER: Inhibition of human EFO-27 cell growth in a cell viability assay.

HuP-T4 = assay type: functional, cell-based, Homo sapiens; details: Homo sapiens, HuP-T4;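 further: cell viability assay measuring how much HuP-T4 cell growth is inhibited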
Description: SANGER: Inhibition of human HuP-T4 cell growth in a cell viability assay.

EW-18 = assay type: functional, cell-based; details: Homo sapiens;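 further: growth inhibition of EW-18 cells, read out by a cell viability assay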
Description: SANGER: Inhibition of human EW-18 cell growth in a cell viability assay.

IST-MEL1 = assay type: functional, cell-based, Homo sapiens; details: Homo sapiens, IST-MEL1;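 further: growth inhibition of the cell line, read out with a cell viability assay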
Description: SANGER: Inhibition of human IST-MEL1 cell growth in a cell viability assay.

EW-1 = assay type: functional, cell-based, Homo sapiens; details: Homo sapiens, EW-1
Description: SANGER: Inhibition of human EW-1 cell growth in a cell viability assay.

SW1417 = assay type: functional, cell-based, Homo sapiens; details: Homo sapiens, SW1417;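 further: growth inhibition of human SW1417 cells, read out with a cell viability assay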
Description: SANGER: Inhibition of human SW1417 cell growth in a cell viability assay.

OVCAR-8 = assay type: functional, cell-based, Homo sapiens; details: Homo sapiens, OVCAR-8;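 further: growth inhibition of human OVCAR-8 cells, read out by a cell viability assay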
Description: SANGER: Inhibition of human OVCAR-8 cell growth in a cell viability assay.

HuP-T3 = assay type: functional, cell-based, Homo sapiens; details: Homo sapiens, HuP-T3;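 further: HuP-T3 cell growth inhibition, read out with a cell viability assay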
Description: SANGER: Inhibition of human HuP-T3 cell growth in a cell viability assay.

KYSE-180 = assay type: functional, cell-based, Homo sapiens; details: Homo sapiens, KYSE-180;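 further: growth inhibition of KYSE-180 cells, read out with a cell viability assay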
Description: SANGER: Inhibition of human KYSE-180 cell growth in a cell viability assay.

MFM-223 = assay type: functional, cell-based, Homo sapiens; details: Homo sapiens, MFM-223
Description: SANGER: Inhibition of human MFM-223 cell growth in a cell viability assay.

COR-L88 = assay type: functional, cell-based; details: Homo sapiens;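 further: growth inhibition of COR-L88 cells, read out with a cell viability assay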
Description: SANGER: Inhibition of human COR-L88 cell growth in a cell viability assay.

U2OS = assay type: functional, cell-based, Homo sapiens, U-2-OS; details: Homo sapiens, U2OS;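 further: growth inhibition of human U-2-OS cells, determined with a cell viability assay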
Description: SANGER: Inhibition of human U-2-OS cell growth in a cell viability assay.

QIMR-WIL = assay type: functional, cell-based; details: Homo sapiens;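 further: growth inhibition of QIMR-WIL cells, read out with a cell viability assay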
Description: SANGER: Inhibition of human QIMR-WIL cell growth in a cell viability assay.

NB6 = assay type: functional, cell-based, Homo sapiens; details: Homo sapiens, NB6
Description: SANGER: Inhibition of human NB6 cell growth in a cell viability assay.

LNCaP-Clone-FGC = assay type: functional, cell-based, Homo sapiens; details: Homo sapiens, LNCaP-Clone-FGC
SCC-25 = assay type: functional, cell-based, Homo sapiens; details: Homo sapiens, SCC-25;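 further: growth inhibition of SCC-25 cells, measured with a cell viability assay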
Description: SANGER: Inhibition of human SCC-25 cell growth in a cell viability assay.

NCI-H23 = assay type: functional, cell-based, Homo sapiens; details: Homo sapiens, NCI-H23;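 further: cell viability assay measuring growth inhibition of NCI-H23 cells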
NCI-H358 = assay type: functional, cell-based, Homo sapiens; details: Homo sapiens, NCI-H358;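 further: growth inhibition of NCI-H358 human cells, read out with a cell viability assay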
Description: SANGER: Inhibition of human NCI-H358 cell growth in a cell viability assay.

SK-N-FI = assay type: functional, cell-based, Homo sapiens; details: Homo sapiens, SK-N-FI;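 further: cell viability assay measuring growth inhibition of human SK-N-FI cells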
Description: SANGER: Inhibition of human SK-N-FI cell growth in a cell viability assay.

NCI-H1651 = assay type: functional, cell-based, Homo sapiens; details: Homo sapiens, NCI-H1651;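 further: Read-out is a cell viability assay, with IC50 expressing inhibition of NCI-H1651 cell growth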
Description: SANGER: Inhibition of human NCI-H1651 cell growth in a cell viability assay.

COR-L23 = assay type: functional, cell-based, Homo sapiens; details: Homo sapiens, COR-L23;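 further: cell viability assay measuring how strongly compounds suppress growth of COR-L23 cells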
Description: SANGER: Inhibition of human COR-L23 cell growth in a cell viability assay.

SK-MEL3 = assay type: functional, cell-based, Homo sapiens, SK-MEL-3; details: Homo sapiens, SK-MEL3;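 further: growth inhibition of human SK-MEL-3 cells, read out with a cell viability assay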
Description: SANGER: Inhibition of human SK-MEL-3 cell growth in a cell viability assay.

MCF7 = assay type: functional, cell-based, Homo sapiens; details: Homo sapiens, MCF7;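 further: growth inhibition of human MCF7 cells, read out with a cell viability assay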
Description: SANGER: Inhibition of human MCF7 cell growth in a cell viability assay.

RPMI-8866 = assay type: functional, cell-based; details: Homo sapiens
Description: SANGER: Inhibition of human RPMI-8866 cell growth in a cell viability assay.

BHY = assay type: functional, cell-based, Homo sapiens; details: Homo sapiens, BHY;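 further: cell growth inhibition read out by a viability assay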
Description: SANGER: Inhibition of human BHY cell growth in a cell viability assay.

TE-10 = assay type: functional, cell-based, Homo sapiens; details: Homo sapiens, TE-10;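 further: growth inhibition of TE-10 cells, measured by a cell viability assay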
Description: SANGER: Inhibition of human TE-10 cell growth in a cell viability assay.

NB17 = assay type: functional, cell-based; details: Homo sapiens;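 further: growth inhibition of NB17 cells, read out with a cell viability assay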
Description: SANGER: Inhibition of human NB17 cell growth in a cell viability assay.

COR-L105 = assay type: functional, cell-based, Homo sapiens; details: Homo sapiens, COR-L105;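 further: cell growth inhibition determined with a viability assay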
Description: SANGER: Inhibition of human COR-L105 cell growth in a cell viability assay.

NCI-H1355 = assay type: functional, cell-based, Homo sapiens; details: Homo sapiens, NCI-H1355;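 further: growth inhibition of human NCI-H1355 cells, read out by a cell viability assay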
Description: SANGER: Inhibition of human NCI-H1355 cell growth in a cell viability assay.

NCI-H209 = assay type: functional, cell-based; details: Homo sapiens;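 further: growth inhibition of human NCI-H209 cells, measured by a cell viability assay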
Description: SANGER: Inhibition of human NCI-H209 cell growth in a cell viability assay.

CAL-27 = assay type: functional, cell-based, Homo sapiens; details: Homo sapiens, CAL-27;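 further: Viability-based readout, IC50 reflecting inhibition of CAL-27 cell growth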
Description: SANGER: Inhibition of human CAL-27 cell growth in a cell viability assay.

BFTC-905 = assay type: functional, cell-based, Homo sapiens; details: Homo sapiens, BFTC-905
Description: SANGER: Inhibition of human BFTC-905 cell growth in a cell viability assay.

SW1463 = assay type: functional, cell-based, Homo sapiens; details: Homo sapiens, SW1463;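 further: growth inhibition of SW1463 cells, determined with a cell viability assay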
Description: SANGER: Inhibition of human SW1463 cell growth in a cell viability assay.

NB69 = assay type: functional, cell-based, Homo sapiens; details: Homo sapiens, NB69;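 further: growth inhibition of NB69 cells, determined by a cell viability assay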
Description: SANGER: Inhibition of human NB69 cell growth in a cell viability assay.

NCI-H1304 = assay type: functional, cell-based; details: Homo sapiens;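 further: growth inhibition of the cancer cell line, measured in a cell viability assay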
Description: SANGER: Inhibition of human NCI-H1304 cell growth in a cell viability assay.

HDLM-2 = assay type: functional, cell-based; details: Homo sapiens;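 further: cell viability assay measuring suppression of HDLM-2 proliferation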
Description: SANGER: Inhibition of human HDLM-2 cell growth in a cell viability assay.

UACC-257 = assay type: functional, cell-based, Homo sapiens; details: Homo sapiens, UACC-257
Description: SANGER: Inhibition of human UACC-257 cell growth in a cell viability assay.

SNU-387 = assay type: functional, cell-based, Homo sapiens; details: Homo sapiens, SNU-387
Description: SANGER: Inhibition of human SNU-387 cell growth in a cell viability assay.

CCRF-CEM = assay type: functional, cell-based; details: Homo sapiens;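 further: inhibition of CCRF-CEM cell growth, measured by a cell viability assay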
Description: SANGER: Inhibition of human CCRF-CEM cell growth in a cell viability assay.

GAMG = assay type: functional, cell-based, Homo sapiens; details: Homo sapiens, GAMG;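 further: cell growth inhibition measured by a viability assay in the GAMG human cell line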
Description: SANGER: Inhibition of human GAMG cell growth in a cell viability assay.

MLMA = assay type: functional, cell-based, Homo sapiens; details: Homo sapiens, MLMA;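 further: growth inhibition of MLMA cells (human), determined through a cell viability readout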
Description: SANGER: Inhibition of human MLMA cell growth in a cell viability assay.

M059J = assay type: functional, cell-based, Homo sapiens; details: Homo sapiens, M059J;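 further: growth inhibition of M059J cells, read out with a cell viability assay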
Description: SANGER: Inhibition of human M059J cell growth in a cell viability assay.

U-118-MG = assay type: functional, cell-based, Homo sapiens; details: Homo sapiens, U-118-MG
Description: SANGER: Inhibition of human U-118-MG cell growth in a cell viability assay.

TE-5 = assay type: functional, cell-based, Homo sapiens; details: Homo sapiens, TE-5;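 further: inhibition of cell growth, read out by a cell viability assay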
Description: SANGER: Inhibition of human TE-5 cell growth in a cell viability assay.

EW-24 = assay type: functional, cell-based; details: Homo sapiens;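 further: human EW-24 cancer cell line, growth inhibition read out via a cell viability assay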
Description: SANGER: Inhibition of human EW-24 cell growth in a cell viability assay.

In the case of `COc1cc(F)c(F)c(Nc2ccc(I)cc2F)c1NS(=O)(=O)C1(CC(O)CO)CC1` (stereo not drawn), the IC50 (ABC-1) is reported as > 5000 nM, the IC50 (IST-MES1) is reported as > 5000 nM and the IC50 (COLO-668) is reported as > 5000 nM. The IC50 (GMS-10) was 3800 nM, the IC50 (CAPAN-1) was 4150 nM and the IC50 (EFO-27) was 962 nM. It also gave an IC50 (HuP-T4) of 514 nM, an IC50 (EW-18) of 2770 nM and an IC50 (IST-MEL1) of 1890 nM. For the same compound, the IC50 (EW-1) was > 5000 nM, the IC50 (SW1417) was > 5000 nM and the IC50 (OVCAR-8) was > 5000 nM. For the same compound, the IC50 (HuP-T3) was > 5000 nM, the IC50 (KYSE-180) was > 5000 nM and the IC50 (MFM-223) was > 5000 nM. The IC50 (COR-L88) was > 5000 nM, the IC50 (U2OS) was 2750 nM and the IC50 (QIMR-WIL) was > 5000 nM. The IC50 (NB6) was > 5000 nM, the IC50 (LNCaP-Clone-FGC) was > 5000 nM and the IC50 (SCC-25) was 490 nM. The IC50 (NCI-H23) was > 5000 nM, the IC50 (NCI-H358) was > 5000 nM and the IC50 (SK-N-FI) was 1880 nM. The IC50 (NCI-H1651) was > 5000 nM, the IC50 (COR-L23) was 2780 nM and the IC50 (SK-MEL3) was 2460 nM. For the same compound, the IC50 (MCF7) was > 5000 nM, the IC50 (RPMI-8866) was > 5000 nM and the IC50 (BHY) was 3290 nM. The IC50 (TE-10) was > 5000 nM, the IC50 (NB17) was > 5000 nM and the IC50 (COR-L105) was > 5000 nM. For the same compound, the IC50 (NCI-H1355) was > 5000 nM, the IC50 (NCI-H209) was > 5000 nM and the IC50 (CAL-27) was > 5000 nM. The IC50 (BFTC-905) was 719 nM, the IC50 (SW1463) was 4130 nM and the IC50 (NB69) was 557 nM. For the same compound, the IC50 (NCI-H1304) was > 5000 nM, the IC50 (HDLM-2) was > 5000 nM and the IC50 (UACC-257) was 66.7 nM. The IC50 (SNU-387) was 2420 nM, the IC50 (CCRF-CEM) was > 5000 nM and the IC50 (GAMG) was > 5000 nM. The IC50 (MLMA) was > 5000 nM, the IC50 (M059J) was > 5000 nM and the IC50 (U-118-MG) was > 5000 nM. It also gave an IC50 (TE-5) of 4520 nM.

With `COc1ccc(-c2ccc3c(N4CCOC[C@@H]4C)nc(N4CCOC[C@@H]4C)nc3n2)cc1CO` [AZD-8055] the IC50 (ABC-1) was > 2000 nM, the IC50 (IST-MES1) was > 2000 nM and the IC50 (COLO-668) was > 2000 nM. For the same compound, the IC50 (GMS-10) was 1750 nM, the IC50 (CAPAN-1) was > 2000 nM and the IC50 (EFO-27) was 680 nM. It also gave an IC50 (HuP-T4) of 1490 nM, an IC50 (EW-18) of 141 nM and an IC50 (IST-MEL1) of 1190 nM. For the same compound, the IC50 (EW-1) was 1610 nM, the IC50 (SW1417) was > 2000 nM and the IC50 (OVCAR-8) was > 2000 nM. The IC50 (HuP-T3) was > 2000 nM, the IC50 (KYSE-180) was 1110 nM and the IC50 (MFM-223) was 426 nM. For the same compound, the IC50 (COR-L88) was 423 nM, the IC50 (U2OS) was 760 nM and the IC50 (QIMR-WIL) was 452 nM. For the same compound, the IC50 (NB6) was > 2000 nM, the IC50 (LNCaP-Clone-FGC) was 353 nM and the IC50 (SCC-25) was 1580 nM. For the same compound, the IC50 (NCI-H23) was 1560 nM, the IC50 (NCI-H358) was > 2000 nM and the IC50 (SK-N-FI) was 1560 nM. The IC50 (NCI-H1651) was > 2000 nM, the IC50 (COR-L23) was 1350 nM and the IC50 (SK-MEL3) was 1250 nM. The IC50 (MCF7) was 405 nM, the IC50 (RPMI-8866) was 858 nM and the IC50 (BHY) was 887 nM. For the same compound, the IC50 (TE-10) was > 2000 nM, the IC50 (NB17) was > 2000 nM and the IC50 (COR-L105) was > 2000 nM. The IC50 (NCI-H1355) was 539 nM, the IC50 (NCI-H209) was 54.5 nM and the IC50 (CAL-27) was > 2000 nM. The IC50 (BFTC-905) was 621 nM, the IC50 (SW1463) was > 2000 nM and the IC50 (NB69) was 135 nM. The IC50 (NCI-H1304) was > 2000 nM, the IC50 (HDLM-2) was 1210 nM and the IC50 (UACC-257) was > 2000 nM. For the same compound, the IC50 (SNU-387) was 1520 nM, the IC50 (CCRF-CEM) was > 2000 nM and the IC50 (GAMG) was 557 nM. The IC50 (MLMA) was > 2000 nM, the IC50 (M059J) was > 2000 nM and the IC50 (U-118-MG) was 1850 nM. For the same compound, the IC50 (TE-5) was 684 nM.

`CN1CCN(CCOc2cc(OC3CCOCC3)c3c(Nc4c(Cl)ccc5c4OCO5)ncnc3c2)CC1` [SARACATINIB] was tested, and the IC50 (IST-MES1) was > 2000 nM, the IC50 (EW-24) was 627 nM and the IC50 (COLO-668) was > 2000 nM. The IC50 (EW-18) was > 2000 nM, the IC50 (IST-MEL1) was > 2000 nM and the IC50 (EW-1) was > 2000 nM. The IC50 (MFM-223) was > 2000 nM, the IC50 (COR-L88) was > 2000 nM and the IC50 (QIMR-WIL) was > 2000 nM. The IC50 (NB6) was > 2000 nM, the IC50 (LNCaP-Clone-FGC) was > 2000 nM and the IC50 (NCI-H23) was > 2000 nM. For the same compound, the IC50 (SK-N-FI) was > 2000 nM, the IC50 (RPMI-8866) was > 2000 nM and the IC50 (TE-10) was 1660 nM. For the same compound, the IC50 (NB17) was > 2000 nM, the IC50 (NCI-H1355) was > 2000 nM and the IC50 (NCI-H209) was > 2000 nM. For the same compound, the IC50 (NB69) was 1370 nM, the IC50 (NCI-H1304) was > 2000 nM and the IC50 (HDLM-2) was > 2000 nM. For the same compound, the IC50 (UACC-257) was > 2000 nM, the IC50 (CCRF-CEM) was > 2000 nM and the IC50 (MLMA) was > 2000 nM. The IC50 (TE-5) was > 2000 nM.
